In ChEMBL document CHEMBL1133243, “Synthesis and antimicrobial activity of some isoindolin-1-ones derivatives” (2000):
Values after ≈ are worked out from the molar mass of the structure shown. Active and inactive are the calls of the source. The calls are words filed in the database; no cut-off is given here.

How the values were obtained:
Bacteria [1] = test: Antimicrobial activity against gram positive and gram negative bacteria; Inactive; type: functional, organism-based
[2] = Antimicrobial activity against aspergillus sp and Candida albicans; Inactive; type: functional
Pseudomonas aeruginosa = test: Minimum inhibitory concentration against Pseudomonas aeruginosa; type: functional
Bacteria [3] = test: Antimicrobial activity against gram positive and gram negative bacteria; Active; type: functional, organism-based
Staphylococcus aureus [4] = test: Minimum inhibitory concentration against Staphylococcus aureus; type: functional
Bacillus subtilis [5] = test: Minimum inhibitory concentration against Bacillus subtilis; type: functional
Escherichia coli = test: Minimum inhibitory concentration against Escherichia coli.; type: functional
Kocuria rosea = test: Minimum inhibitory concentration against Micrococcus roseus; type: functional
Staphylococcus aureus [6] = test: Compound was evaluated for minimum inhibitory concentration against Staphylococcus aureus; type: functional
Bacteria [7] = test: Compound tested for in vitro antimicrobial activity against gram positive and gram negative bacteria; Active; type: functional, organism-based
Staphylococcus aureus [8] = test: Compound was evaluated for minimum inhibitory concentration against Staphylococcus aureus;Zero growth inhibition; type: functional, organism-based
Bacillus subtilis [9] = test: Compound was evaluated for minimum inhibitory concentration against Bacillus subtilis;Zero growth inhibition; type: functional, organism-based

Compound	Activity (Bacteria [1])	Activity [2]	MIC (Pseudomonas aeruginosa) [mg/L]	Activity (Bacteria [3])	MIC (Staphylococcus aureus [4]) [mg/L]	MIC (Bacillus subtilis [5]) [mg/L]	MIC (Escherichia coli) [mg/L]	MIC (Kocuria rosea) [mg/L]	Inhibition (Staphylococcus aureus [6]) [%]	Activity (Bacteria [7])	MIC (Staphylococcus aureus [8])	MIC (Bacillus subtilis [9])
CC(c1ccccc1)N1Cc2ccccc2C1=O (stereo not drawn)	inactive	inactive										
O=C1c2ccccc2C2OCC(Cc3ccccc3)N12 (stereo not drawn)	inactive	inactive										
COc1ccc(N2Cc3ccccc3C2=O)cc1	inactive	inactive										
O=C(O)[C@H](CO)N1Cc2ccccc2C1=O		inactive	3600 (≈ 16.3 mM)	Active	3600 (≈ 16.3 mM)	729 (≈ 3.3 mM)	1620 (≈ 7.32 mM)	2610 (≈ 11.8 mM)				
CC(C)[C@@H](C(=O)O)N1Cc2ccccc2C1=O		inactive	3600 (≈ 15.4 mM)	Active	3600 (≈ 15.4 mM)	1620 (≈ 6.94 mM)	1620 (≈ 6.94 mM)	1620 (≈ 6.94 mM)				
CC(C)CC(C(=O)O)N1Cc2ccccc2C1=O (stereo not drawn)		inactive	3600 (≈ 14.6 mM)	Active	3600 (≈ 14.6 mM)	729 (≈ 2.95 mM)	3600 (≈ 14.6 mM)	3600 (≈ 14.6 mM)				
O=C(O)[C@H](c1ccccc1)N1Cc2ccccc2C1=O		inactive	3600 (≈ 13.5 mM)	Active		529 (≈ 1.98 mM)	1620 (≈ 6.06 mM)	729 (≈ 2.73 mM)	0			
O=C(O)[C@H](Cc1ccccc1)N1Cc2ccccc2C1=O		inactive	3600 (≈ 12.8 mM)	Active		1180 (≈ 4.18 mM)	3600 (≈ 12.8 mM)	2610 (≈ 9.28 mM)	0			
Cc1ccc(N2Cc3ccccc3C2=O)cc1	inactive	inactive										
C[C@@H](C(=O)O)N1Cc2ccccc2C1=O		inactive	3600 (≈ 17.5 mM)		1620 (≈ 7.89 mM)	729 (≈ 3.55 mM)	1620 (≈ 7.89 mM)	1620 (≈ 7.89 mM)		Active		
O=C(O)C[C@@H](C(=O)O)N1Cc2ccccc2C1=O		inactive	1620 (≈ 6.5 mM)	Active	3600 (≈ 14.4 mM)	147 (≈ 0.59 mM)	729 (≈ 2.93 mM)	2610 (≈ 10.5 mM)				
O=C1c2ccccc2C(O)N1Cc1ccccc1 (stereo not drawn)		inactive	3600 (≈ 15 mM)	Active			2610 (≈ 10.9 mM)	1620 (≈ 6.77 mM)			Zero growth inhibition	Zero growth inhibition
CCC(C)C(C(=O)O)N1Cc2ccccc2C1=O (stereo not drawn)		inactive	3600 (≈ 14.6 mM)	Active	3600 (≈ 14.6 mM)	729 (≈ 2.95 mM)	1620 (≈ 6.55 mM)	1180 (≈ 4.75 mM)				
CC(C)[C@H](C(=O)O)N1Cc2ccccc2C1=O		inactive	3600 (≈ 15.4 mM)	Active	3600 (≈ 15.4 mM)	1620 (≈ 6.94 mM)	3600 (≈ 15.4 mM)	1620 (≈ 6.94 mM)				
C[C@H](C(=O)O)N1Cc2ccccc2C1=O		inactive	3600 (≈ 17.5 mM)		1620 (≈ 7.89 mM)	328 (≈ 1.6 mM)	3600 (≈ 17.5 mM)	2610 (≈ 12.7 mM)		Active		
CC(C)C1COC2c3ccccc3C(=O)N21 (stereo not drawn)	inactive											
O=C1c2ccccc2C2OCC(c3ccccc3)N12 (stereo not drawn)	inactive	inactive										
